The target of one series is T1, OsdR (SCO0204) (Streptomyces coelicolor, UniProt Q9RI42).
T1 construct: His6-tagged, from plasmid pET0204 in E. coli BL21(DE3), Ni-NTA purified
T1 sequence (Q9RI42 1-233): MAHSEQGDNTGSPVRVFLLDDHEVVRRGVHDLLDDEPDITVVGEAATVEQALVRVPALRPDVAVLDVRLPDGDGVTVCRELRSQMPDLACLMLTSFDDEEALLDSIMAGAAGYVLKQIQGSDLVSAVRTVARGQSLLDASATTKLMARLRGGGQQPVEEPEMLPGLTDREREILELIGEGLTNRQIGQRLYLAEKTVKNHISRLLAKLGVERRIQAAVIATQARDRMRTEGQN
Put plainly: in vitro phosphorylation by AcP, read out by EMSA (DNA binding versus nonphosphorylated OsdR). The conditions noted are these: phosphor donor; covalent phosphorylation; indirect read-out. The series is classed as biochemical.

For series [1], the target named is T2, OsdR~P (phosphorylated with acetyl phosphate) (Streptomyces coelicolor) (UniProt Q9RI42).
T2 sequence: T1 sequence (Q9RI42 1-233)
The experiment in a line: EMSA. As to conditions: AcP-phosphorylated; EMSA with 32P-labeled probes, 20 fmol DNA (50-mers), uM OsdR; AcP phosphorylation; buffer, pH, temperature not given (cited method).

As to `CC(=O)OP(=O)(O)O` [acetyl phosphate], the “in vitro phosphorylation by AcP, read out by EMSA (DNA binding versus nonphospho)” value at OsdR (SCO0204) is reported as “OsdR~P was obtained after AcP phosphorylation in vitro”. For SCO2637 promoter, the binding signal (fold lower affinity than other targets) in series [1] was found to be 2.

(Values after paper PMC5069765, “OsdR of Streptomyces coelicolor and the Dormancy Regulator DevR of Mycobacterium tuberculosis Control Overlapping Regulons” (mSystems, 2016).)
